According to patent publication EP2298778A1, “IMIDAZOTHIAZOLE DERIVATIVE HAVING 4,7-DIAZASPIROÝ2.5¨OCTANE RING STRUCTURE” (Daiichi Sankyo Company, Limited, priority 2008, dated 2009):

Assay: Metabolic stability test (microsomal metabolism test)
Type: in vitro ADME
Details: pH 7.4; human-derived liver microsomes, test compound remaining after addition of NADP+ and incubation at 37°C for 30 minutes; read-out: metabolic stability of T/C%
Procedure: (Test Example 3 Metabolic stability test) 100 µL of 100 mM phosphate buffer solution (pH 7.4) containing 3 µM test compound was added to 100 µL of reaction solution containing 100 mM phosphate buffer solution (pH 7.4), 30 mM glucose 6-phosphate, 10 mM MgCl2·6H2O, 3 units/mL glucose 6-phosphate 1-dehydrogenase, and 0.3 to 1.5 mgP/mL human liver microsomes and the mixture was incubated at 37°C for 20 minutes. Then, 70 µL of 100 mM phosphate buffer solution (pH 7.4) containing 3 mM NADP^+ was added and the mixture was incubated at 37°C for 30 minutes to conduct a microsomal metabolism test. The metabolic stability was calculated according to the following formula: T/C (%) = ((concentration of test compound after addition of NADP)^+and incubation for30minutes)/((concentration of test compound before addition of NADP)^+) × 100. [formula] […]

| Compound | remaining at 0.5 h [%] |
| --- | --- |
| CC(C)C1=C(C(=O)N2[C@H](CF)CC[C@H]2C(=O)N2CCN(C)C3(CC3)C2)SC2=N[C@@](C)(c3ccc(Cl)nc3)[C@@H](c3ccc(Cl)c(F)c3)N21 [Example 41, 7-[(5S)-1-{[(5R,6S)-5-(4-chloro-3-fluorophenyl)-6-(6-chloropyridin-3-yl)-3-isopropyl-6-methyl-5,6-dihydroimidazo[2,1-b][1,3]thiazol-2-yl]carbonyl}-5-(fluoromethyl)-L-prolyl]-4-methyl-4,7-diazaspiro[2.5]octane] | ≥ 50 |
| CC(C)C1=C(C(=O)N2C[C@@H]3C[C@@H]3[C@H]2C(=O)N2CC3(CC3)NC[C@@H]2C)SC2=N[C@@](C)(c3ccc(Cl)nc3)[C@@H](c3ccc(Cl)c(F)c3)N21 [Example 69, (65)-7-{[(1S,25,5R)-3-{[(5R,65)-5-(4-chloro-3-fluorophenyl)-6-(6-chloropyridin-3-yl)-3-isopropyl-6-methyl-5,6-dihydroimidazo[2,1-b][1,3]thiazol-2-yl]carbonyl}-3-azabicyclo[3.1.0]hex-2-yl]carbonyl}-6-methyl-4,7-diazaspiro[2.5]octane] | ≥ 50 |
| CCN(C(=O)C1=C(C(C)C)N2C(=N[C@@](C)(c3ccc(Cl)cc3)[C@H]2c2ccc(Cl)cc2)S1)C1(C(=O)N2CCNC3(CC3)C2)CC1 [Example 50, (5R,6S)-5,6-bis(4-chlorophenyl)-N-[1-(4,7-diazaspiro[2.5]oct-7-ylcarbonyl)cyclopropyl]-N-ethyl-3-isopropyl-6-methyl-5,6-dihydroimidazo[2,1-b][1,3] thiazole-2-carboxamide] | ≥ 50 |
| CCN(C(=O)C1=C(C(C)C)N2C(=N[C@@](C)(c3ccc(Cl)cc3)[C@H]2c2ccc(Cl)c(F)c2)S1)C1(C(=O)N2CCNC3(CC3)C2)CC1 [Example 52, (5R,6S)-5-(4-chloro-3-fluorophenyl)-6-(4-chlorophenyl)-N-[1-(4,7-diazaspiro[2.5]oct-7-ylcarbonyl)cyclopropyl]-N-ethyl-3-isopropyl-6-methyl-5,6-dihydroimidazo[2,1-b][1,3]thiazole-2-carboxamide] | ≥ 50 |
| CC(C)C1=C(C(=O)N2[C@H](C)CC[C@H]2C(=O)N2CCNC3(CC3)C2)SC2=N[C@@](C)(c3ccc(Cl)nc3)[C@@H](c3ccc(Cl)cc3)N21 [Example 8, 7-[(5R)-1-{[(5R,6S)-5-(4-chlorophenyl)-6-(6-chloropyridin-3-yl)-3-isopropyl-6-methyl-5,6-dihydroimidazo[2,1-b][1,3]thiazol-2-yl]carbonyl}-5-methyl-L-prolyl]-4,7-diazaspiro[2.5]octane] | ≥ 50 |
| CO[C@@H]1C[C@@H](C(=O)N2CC3(CC3)NC[C@@H]2C)N(C(=O)C2=C(C(C)C)N3C(=N[C@@](C)(c4ccc(Cl)nc4)[C@H]3c3ccc(Cl)c(F)c3)S2)C1 [Example 63, (6S)-7-[(4R)-1-{[(5R,6S)-5-(4-chloro-3-fluorophenyl)-6-(6-chloropyridin-3-yl)-3-isopropyl-6-methyl-5,6-dihydroimidazo[2,1-b][1,3]thiazol-2-yl]carbonyl}-4-methoxy-L-prolyl]-6-methyl-4,7-diazaspiro[2.5]octane] | ≥ 50 |
| CC(C)C1=C(C(=O)N2C(=O)CC[C@H]2C(=O)N2CCNC3(CC3)C2)SC2=N[C@@](C)(c3ccc(Cl)nc3)[C@@H](c3ccc(Cl)c(F)c3)N21 [Example 44, (5S)-1-{[(5R,6S)-5-(4-chloro-3-fluorophenyl)-6-(6-chloropyridin-3-yl)-3-isopropyl-6-methyl-5,6-dihydroimidazo[2,1-b][1,3]thiazol-2-yl]carbonyl}-5-(4,7-diazaspiro[2.5]oct-7-ylcarbonyl)pyrrolidin-2-one] | ≥ 50 |
| CC(=O)N1CCN(C(=O)[C@@H]2CCC(=O)N2C(=O)C2=C(C(C)C)N3C(=N[C@@](C)(c4ccc(Cl)nc4)[C@H]3c3ccc(Cl)c(F)c3)S2)CC12CC2 [Example 45, (5S)-5-[(4-acetyl-4,7-diazaspiro[2.5]oct-7-yl)carbonyl]-1-{[(5R,6S)-5-(4-chloro-3-fluorophenyl)-6-(6-chloropyridin-3-yl)-3-isopropyl-6-methyl-5,6-dihydroimidazo[2,1-b][1,3]thiazol-2-yl]carbonyl}pyrrolidin-2-one] | ≥ 50 |
| CC[C@@H]1CNC2(CC2)CN1C(=O)[C@@H]1CC[C@@H](C)N1C(=O)C1=C(C(C)C)N2C(=N[C@@](C)(c3ccc(Cl)nc3)[C@H]2c2ccc(Cl)c(F)c2)S1 [Example 59, (6R)-7-[(5R)-1-{[(5R,6S)-5-(4-chloro-3-fluorophenyl)-6-(6-chloropyridin-3-yl)-3-isopropyl-6-methyl-5,6-dihydroimidazo[2,1-b][1,3]thiazol-2-yl]carbonyl}-5-methyl-L-prolyl]-6-ethyl-4,7-diazaspiro[2.5]octane] | ≥ 50 |
| CC(C)C1=C(C(=O)N2[C@H](C)CC[C@H]2C(=O)N2C[C@@H](C)NC3(CC3)C2)SC2=N[C@@](C)(c3ccc(Cl)cc3)[C@@H](c3ccc(Cl)cc3)N21 [Example 16, (5R)-7-[(5R)-1-{[(5R,6S)-5,6-bis(4-chlorophenyl)-3-isopropyl-6-methyl-5,6-dihydroimidazo[2,1-b][1,3]thiazol-2-yl]carbonyl}-5-methyl-L-prolyl]-5-methyl-4,7-diazaspiro[2.5]octane] | ≥ 50 |
| COc1ccc([C@]2(C)N=C3SC(C(=O)N4[C@H](C)CC[C@H]4C(=O)N4CCNC5(CC5)C4)=C(C(C)C)N3[C@@H]2c2ccc(Cl)c(F)c2)cc1 [Example 72, 7-[(5R)-1-{[(5R,6S)-5-(4-chloro-3-fluorophenyl)-3-isopropyl-6-(4-methoxyphenyl)-6-methyl-5,6-dihydroimidazo[2,1-b][1,3]thiazol-2-yl]carbonyl}-5-methyl-L-prolyl]-4,7-diazaspiro[2.5]octane] | ≥ 50 |
| CCOc1ccc([C@]2(C)N=C3SC(C(=O)N4[C@H](C)CC[C@H]4C(=O)N4CCNC5(CC5)C4)=C(C(C)C)N3[C@@H]2c2ccc(Cl)c(F)c2)cn1 [Example 73, 7-[(5R)-1-{[(5R,6S)-5-(4-chloro-3-fluorophenyl)-6-(6-ethoxypyridin-3-yl)-3-isopropyl-6-methyl-5,6-dihydroimidazo [2,1-b] [1,3]-thiazol-2-yl]-carbonyl}-5-methyl-L-prolyl]-4,7-diazaspiro[2.5]octane] | ≥ 50 |
| CC(C)C1=C(C(=O)N2[C@H](C)CC[C@H]2C(=O)N2C[C@@H](C)N(C)C3(CC3)C2)SC2=N[C@@](C)(c3ccc(Cl)nc3)[C@@H](c3ccc(Cl)c(F)c3)N21 [Example 18, (5R)-7-[(5R)-1-{[(5R,6S)-5-(4-chloro-3-fluorophenyl)-6-(6-chloropyridin-3-yl)-3-isopropyl-6-methyl-5,6-dihydroimidazo[2,1-b][1,3]thiazol-2-yl]carbonyl}-5-methyl-L-prolyl]-4,5-dimethyl-4,7-diazaspiro[2.5]octane] | ≥ 50 |
| CC(C)C1=C(C(=O)N2[C@H](C)CC[C@H]2C(=O)N2CCN(CCO)C3(CC3)C2)SC2=N[C@@](C)(c3ccc(Cl)nc3)[C@@H](c3ccc(Cl)c(F)c3)N21 [Example 13] | ≥ 50 |
| CC(C)C1=C(C(=O)N2[C@H](C)CC[C@H]2C(=O)N2CCNC3(CC3)C2)SC2=N[C@@](C)(c3ccc(Cl)cc3)[C@@H](c3ccc(Cl)cc3)N21 [Example 1, 7-[(5R)-1-{[(5R,6S)-5,6-bis(4-chlorophenyl)-3-isopropyl-6-methyl-5,6-dihydroimidazo[2,1-b][1,3]thiazol-2-yl]carbonyl}-5-methyl-L-prolyl]-4,7-diazaspiro[2.5]octane] | ≥ 50 |
